Measurements published in patent US12186402B2, “Polymer materials for delivery of short-chain fatty acids to the intestine for applications in human health and treatment of disease” (The University of Chicago, priority 2017, dated 2025).

Test system: allergy to peanuts induced in mice
Experiment: Induced peanut allergy model: challenge with peanut protein; core body temperature, peanut-specific IgE, IgG1, mMCP-1
Type: in vivo, mouse

Compound: CCCC(=O)[O-].[Na+] [sodium butyrate]
- physiological markers and symptoms of an allergic reaction (Example 8: allergic mice, 2.83 mg per g body weight daily by oral gavage, FIG. 17): not effective
- core body temperature over time after challenge with peanut protein (protection) (FIG. 19, allergic mice, daily oral treatment): no protection
